Results from patent US8093231B2, “Sulfonylethyl phosphorodiamidates” (Telik, Inc., priority 2004, dated 2012).
pIC50: −log10 of the molar value. Counter-ions that a name gives are not always drawn. Like-named read-outs stand apart in the source and are kept apart here.

How the values were obtained:
[1] = system: MX-1, DLD-1 and LNCap cells; test: Cytotoxicity/growth inhibition assay, cell line not specified for the statement
Description: The human cancer cell lines DLD-1 (colorectal adenocarcinoma), LNCap (prostate carcinoma), and OVCAR-3 (ovarian carcinoma) were obtained from the American Type Culture Collection, Manassas, Va., U.S.A., and HL-60 (promyeloid myelocytic leukemia), MX-1 (breast carcinoma), P388, and P388ADR from the National Cancer Institute, Bethesda, Md., U.S.A. Carboplatin, doxorubicin, and melphalan were obtained from Sigma-Aldrich Chemical Company, St. Louis, Mo., U.S.A. The CellTiter-Glo assay kit was obtained from Promega Corporation, Madison, Wis., U.S.A., and the Cellular DNA Cytometric Analysis Reagent Kit from Roche Diagnostics Corporation, Indianapolis, Ind., U.S.A. Lambda DNA was obtained from New England Biolabs, Beverly, Mass., U.S.A., and SYBR-Gold from Molecular Probes, Inc., Eugene, Oreg., U.S.A. The DNeasy Tissue Kit was obtained from Qiagen Inc., Valencia, Calif., U.S.A., and AmpliTaq Gold DNA polymerase and PCR reagents from Applied Biosystems, Foster City, Calif., U.S.A. All products were used in accordance with manufacturer's directions. […] The extent of cell growth was expressed as a percentage of the signal from the solvent control wells.
Log-phase cells were trypsinized, collected by centrifugation, and resuspended in a small volume of fresh medium, and the density of viable cells was determined following Trypan Blue staining. […]

[2] = system: MX-1 (breast carcinoma); test: Cytotoxicity/growth inhibition assay, MX-1; format: cell-based, human; conditions: Homo sapiens, MX1, 72 h, read-out: IC50 (MX-1)
Summary of the method: (§1)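 Test compounds in DMSO (0.1–200 μM; final DMSO 0.5%) added to freshly diluted cells (3×10^3 cells/mL MX-1 and DLD-1, 6×10^3 cells/mL LNCap), triplicate wells. Cultured ~three doubling times (3 days MX-1, 4 days DLD-1/LNCap). CellTiter-Glo luminescence, 15 min room temperature; growth expressed as % of DMSO solvent control.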

[3] = system: DLD-1 (colorectal adenocarcinoma); test: Cytotoxicity/growth inhibition assay, DLD-1; format: cell-based, human; conditions: Homo sapiens, DLD-1, 96 h, read-out: IC50 (DLD-1)
Summary of the method: as §1

[4] = system: DLD-1 cells; test: Cell cycle analysis; format: cell-based, human; conditions: approximately IC75-85, one and two days, propidium iodide FACS
[5] = system: P388 murine leukemia cell line; test: Cross-resistance assay; format: cell-based; conditions: P388 vs doxorubicin-resistant derivative; cross-resistant if resistance ratio approximately 2 or higher
Description: (§2) The human cancer cell lines DLD-1 (colorectal adenocarcinoma), LNCap (prostate carcinoma), and OVCAR-3 (ovarian carcinoma) were obtained from the American Type Culture Collection, Manassas, Va., U.S.A., and HL-60 (promyeloid myelocytic leukemia), MX-1 (breast carcinoma), P388, and P388ADR from the National Cancer Institute, Bethesda, Md., U.S.A. Carboplatin, doxorubicin, and melphalan were obtained from Sigma-Aldrich Chemical Company, St. Louis, Mo., U.S.A. The CellTiter-Glo assay kit was obtained from Promega Corporation, Madison, Wis., U.S.A., and the Cellular DNA Cytometric Analysis Reagent Kit from Roche Diagnostics Corporation, Indianapolis, Ind., U.S.A. Lambda DNA was obtained from New England Biolabs, Beverly, Mass., U.S.A., and SYBR-Gold from Molecular Probes, Inc., Eugene, Oreg., U.S.A. The DNeasy Tissue Kit was obtained from Qiagen Inc., Valencia, Calif., U.S.A., and AmpliTaq Gold DNA polymerase and PCR reagents from Applied Biosystems, Foster City, Calif., U.S.A. All products were used in accordance with manufacturer's directions. All assays were conducted in triplicate wells, with dimethyl sulfoxide (DMSO) solvent control. The extent of cell growth was expressed as a percentage of the signal from the solvent control wells.

[6] = system: OVCAR-3 cell line; test: Synergism assay; format: cell-based, human
Description: as §2

[7] = system: MX-1 (human breast cancer) tumor; test: MX-1 xenograft assay, intraperitoneal administration; format: in vivo, athymic nu/nu mice; conditions: for activity in MX-1 xenograft assay: 100 mg/Kg intraperitoneal once/day for 5, 9, or 14 days; for dose dependence of tumor inhibition / tumor inhibition: intraperitoneal; for dose dependence of tumor inhibition: range of doses and treatment times
Experimental: (§3) Female athymic nu/nu mice (Harlan, Indianapolis, Ind., U.S.A. or similar vendor), 6-8 weeks old (approximately 20 g), were implanted in the mammary fat pad of the right fore flank with 20-30 mg pieces of MX-1 (human breast cancer) tumor harvested from similar mice that had previously been implanted with the MX-1 tumor. Approximately 7-10 days after tumor transplantation, when the tumor weight was approximately 50-200 mg, the mice were assigned to treatment groups. […] All compounds were active in this assay, with tumor growth inhibition compared to vehicle between 5% (compound 171A) and 99% (compound 13A), with most compounds causing at least 30% tumor growth inhibition. […] Compound 13A was tested at 25, 50, or 100 mg/Kg for 5 or 9 days, causing tumor inhibition between 19% (25 mg/Kg for 5 days) and 99% (100 mg/Kg for 9 days). Compound 70A was tested at 50, 100, and 150 mg/Kg for 5 or 12 days, causing tumor inhibition between 16% (50 mg/Kg for 5 days) and 95% (150 mg/Kg for 12 days).

[8] = system: Lambda DNA; test: DNA damage assay; format: biochemical; conditions: 100 μM and 300 μM, room temperature, one day, PCR amplification
[9] = system: MX-1 (human breast cancer) tumor; test: MX-1 xenograft assay, oral administration; format: in vivo, athymic nu/nu mice
Experimental: as §3
A study similar to that described in In vivo Example 1 was performed using oral administration of compounds 13A and 70A. Groups of mice were treated with compound 13A at 50, 100, or 300 mg/Kg, or compound 70A at 100, 150, 200, or 250 mg/Kg, by gavage once/day for 5 days (with vehicle control). Tumor growth inhibition was measured 13 days after the start of treatment.

[10] = system: HCT116 (human colon cancer) tumor; test: HCT116 xenograft assay, intraperitoneal administration; format: in vivo, athymic nu/nu mice
Experimental: Male athymic nu/nu mice, 6-8 weeks old (approximately 20 g), were implanted subcutaneously in the right fore flank with 20-30 mg pieces of HCT116 (human colon cancer) tumor harvested from similar mice that had previously been implanted with the HCT116 tumor. Approximately 7-10 days after tumor transplantation, when the tumor weight was approximately 50-200 mg, the mice were assigned to treatment groups. Groups of mice were treated with compounds 5A or 13A at 100 mg/Kg, or compound 70A at 150 mg/Kg, by intraperitoneal injection once/day for 11 days, with vehicle control. Tumor growth inhibition was measured 13 days after the start of treatment.

[11] = system: MiaPaCa-2 (human pancreatic cancer) tumor; test: MiaPaCa-2 xenograft assay, intraperitoneal administration; format: in vivo, athymic nu/nu mice; conditions: 100 mg/Kg intraperitoneal once/day for 14 days
Experimental: Male athymic nu/nu mice, 6-8 weeks old (approximately 20 g), were implanted subcutaneously in the right fore flank with 20-30 mg pieces of MiaPaCa-2 (human pancreatic cancer) tumor harvested from similar mice that had previously been implanted with the MiaPaCa-2 tumor. Approximately 7-10 days after tumor transplantation, when the tumor weight was approximately 50-200 mg, the mice were assigned to treatment groups. Groups of mice were treated with compound 13A or 70A at 100 mg/Kg by intraperitoneal injection once/day for 14 days, with vehicle control. Tumor growth inhibition was measured 15 days after the start of treatment.

[12] = system: MiaPaCa-2 (human pancreatic cancer) tumor; test: MiaPaCa-2 xenograft assay, oral administration; format: in vivo, athymic nu/nu mice; conditions: 200 mg/Kg for 7 days
[13] = system: M6709 human colon carcinoma cell line selected for resistance to doxorubicin; conditions: overexpresses GST P1-1; cited from earlier work
[14] = system: MCF-7 human breast carcinoma cell line selected for resistance to cyclophosphamide; conditions: overexpresses GST P1-1; cited from earlier work
[15] = system: in vitro cell culture and tumor biopsies; conditions: cited from earlier work
[16] = system: M7609 engineered to have high, medium, and low levels of GST P1-1; conditions: murine xenografts; cited from earlier work
[17] = system: ovarian, breast, non-small cell lung, and colorectal cancers; conditions: cited from earlier work

## O=P(OCCSCCOP(=O)(N(CCCl)CCCl)N(CCCl)CCCl)(N(CCCl)CCCl)N(CCCl)CCCl [Compound 1CC, di[2-[[bis[bis(2-chloroethyl)amino]phosphinyl]oxy]ethyl]sulfide]
[1]
  activity in cytotoxicity/growth inhibition assay: active

## O=P(OCCS(=O)(=O)Cc1ccccc1)(N(CCCl)CCCl)N(CCCl)CCCl [Compound 128A, α-[[2-[[bis[bis(2-chloroethyl)amino]phosphinyl]oxy]ethyl]sulfonyl]toluene]
[2]
  pIC50: 5.35
[3]
  pIC50: 5.49
[4]
  cell cycle effect (G2/M cycle block): induced a G2/M cycle block
[5]
  cross-resistance with doxorubicin: not cross-resistant
[6]
  synergism with carboplatin: synergistic
[7]
  activity in MX-1 xenograft assay: active
  dose dependence of tumor inhibition: dose-dependent tumor inhibition

## N[C@@H](CS(=O)(=O)CCOP(=O)(N(CCCl)CCCl)N(CCCl)CCCl)C(=O)O [Compound 70A, 3-[[2-[[bis[bis(2-chloroethyl)amino]phosphinyl]oxy]ethyl]sulfonyl]-L-alanine]
[2]
  pIC50: 4.44
[3]
  pIC50: 4.97
[4]
  cell cycle effect (G2/M cycle block): induced a G2/M cycle block
[8]
  DNA damage activity: only marginal DNA damage activity
[5]
  cross-resistance with doxorubicin: not cross-resistant
[7]
  activity in MX-1 xenograft assay: active
  dose dependence of tumor inhibition: dose-dependent tumor inhibition
[7]; 50 mg/Kg for 5 days
  tumor inhibition: 16%
[7]; 150 mg/Kg for 12 days
  tumor inhibition: 95%
[9]; 100 mg/Kg gavage once/day for 5 days, measured 13 days after start
  inhibition of tumor growth compared to vehicle: 36%
[9]; 250 mg/Kg gavage once/day for 5 days, measured 13 days after start
  inhibition of tumor growth compared to vehicle: 96%
[9]; gavage once/day for 5 days
  activity in MX-1 xenograft assay, oral: active
[9]; gavage once/day for 5 days, measured 13 days after start
  dose dependence of tumor inhibition, oral: dose-dependent tumor inhibition
[10]; 150 mg/Kg intraperitoneal once/day for 11 days, measured 13 days after start
  inhibition of tumor growth compared to vehicle: 26%
[10]; intraperitoneal once/day for 11 days
  activity in HCT116 xenograft assay: active
[11]
  activity in MiaPaCa-2 xenograft assay: active
[11]; measured 15 days after start
  inhibition of tumor growth compared to vehicle: 38%
[12]
  activity in MiaPaCa-2 xenograft assay, oral: active
  inhibition of tumor growth: 27%

## N[C@@H](CCC(=O)N[C@@H](CS(=O)(=O)CCOP(=O)(N(CCCl)CCCl)N(CCCl)CCCl)C(=O)N[C@@H](C(=O)O)c1ccccc1)C(=O)O [canfosfamide, L-γ-glutamyl-3-[[2-[[bis[bis(2-chloroethyl)amino]phosphinyl]oxy]ethyl]sulfonyl]-L-alanyl-2phenyl-(2R)-glycine]
[4]
  cell cycle effect (G2/M cycle block): induced a G2/M cycle block
[8]
  DNA damage activity: only marginal DNA damage activity
[6]
  synergism with carboplatin: synergistic
[13]
  potency in resistant line over parental cell line: more potent
[14]
  potency in resistant line over parental cell line: more potent
[15]
  cross-resistance to platinum, paclitaxel, doxorubicin and gemcitabine: non-cross-resistant

## N[C@@H](CCC(=O)N[C@@H](CS(=O)(=O)CCOP(=O)(N(CCCl)CCCl)N(CCCl)CCCl)C(=O)N[C@@H](C(=O)O)c1ccccc1)C(=O)O [canfosfamide hydrochloride]
[16]
  potency versus level of GST P1-1: positively correlated with the level of GST P1-1
[17]; colorectal and breast cancer
  clinical activity: single agent antitumor activity
[17]; patients treated
  incidence of clinically significant hematological toxicity: very low incidence
[17]; patients with non-small cell lung cancer and ovarian cancer
  clinical activity: significant single agent antitumor activity and improvement in survival
